Source: ChEMBL document CHEMBL3885881, “DrugMatrix”

Species on record: Rattus norvegicus
Test: DrugMatrix - Regimen: Daily Repeat
Format: toxicity, organism-based, Sprague-Dawley
Design: regimen Daily Repeat, gender Male, age 6-8 weeks
Conditions: in vivo, po, route oral GAVAGE, vehicle .5 % CMC; for ABSOLUTE BASOPHIL / ABSOLUTE EOSINOPHIL / ABSOLUTE LYMPHOCYTE / ABSOLUTE MONOCYTE / ABSOLUTE SEGMENTED NEUTROPHIL / BASOPHIL / EOSINOPHIL / ERYTHROCYTE COUNT / HEMATOCRIT / HEMOGLOBIN / LEUKOCYTE COUNT / LYMPHOCYTE / MEAN CORPUSCULAR HEMOGLOBIN / MEAN CORPUSCULAR HEMOGLOBIN CONCENTRATION / MEAN CORPUSCULAR VOLUME / MONOCYTE / NEUTROPHIL / NUCLEATED RED BLOOD CELLS / PLATELET COUNT: tissue Blood; for ALANINE AMINOTRANSFERASE / ALBUMIN / ALKALINE PHOSPHATASE / ASPARTATE AMINOTRANSFERASE / BLOOD UREA NITROGEN / CARBON DIOXIDE / CHLORIDE / CHOLESTEROL / CREATINE PHOSPHOKINASE / CREATININE / GLUCOSE / LACTATE DEHYDROGENASE / LIPASE / PHOSPHORUS / POTASSIUM / SODIUM / TOTAL BILIRUBIN / TOTAL PROTEIN / URIC ACID: tissue Plasma
[1] = 0 mg/kg, 72 h, dose level Control, time 3 day
[2] = 0 mg/kg, 120 h, dose level Control, time 5 day
[3] = 100 mg/kg, 72 h, dose level Low, time 3 day

Question: `CN/C(=N/CCSCc1nc[nH]c1C)NC#N` [CIMETIDINE] was tested. Which “ABSOLUTE BASOPHIL” value [1] did it give?
Answer: 0 CELLS/uL

Question: And the “ABSOLUTE EOSINOPHIL” value [1]?
Answer: 0 CELLS/uL

Question: And the “ABSOLUTE LYMPHOCYTE” value [1]?
Answer: 12191.17 CELLS/uL

Question: And the “ABSOLUTE MONOCYTE” value [1]?
Answer: 183.17 CELLS/uL

Question: What about the “ABSOLUTE SEGMENTED NEUTROPHIL” value [1] of the same molecule?
Answer: 1192.33 CELLS/uL

Question: And the BASOPHIL [1]?
Answer: 0%

Question: What about the EOSINOPHIL [1] of the same molecule?
Answer: 0%

Question: And the “ERYTHROCYTE COUNT” value [1]?
Answer: 5.51 x10E6/uL

Question: What about the HEMATOCRIT [1] of the same molecule?
Answer: 35.45%

Question: What about the HEMOGLOBIN [1] of the same molecule?
Answer: 13.82 G/DL

Question: What about the “LEUKOCYTE COUNT” value [1] of the same molecule?
Answer: 13.57 x10E3/uL

Question: And the LYMPHOCYTE [1]?
Answer: 89.83%

Question: What about the “MEAN CORPUSCULAR HEMOGLOBIN” value [1] of the same molecule?
Answer: 25.1 pg

Question: And the “MEAN CORPUSCULAR HEMOGLOBIN CONCENTRATION” value [1]?
Answer: 38.98 G/DL

Question: And the “MEAN CORPUSCULAR VOLUME” value [1]?
Answer: 64.42 fL

Question: What about the MONOCYTE [1] of the same molecule?
Answer: 1.33%

Question: What about the NEUTROPHIL [1] of the same molecule?
Answer: 8.83%

Question: What about the “NUCLEATED RED BLOOD CELLS” value [1] of the same molecule?
Answer: 0 /100WBC

Question: And the “PLATELET COUNT” value [1]?
Answer: 1118.17 x10E3/uL

Question: And the “ALANINE AMINOTRANSFERASE” value [1]?
Answer: 55 u/L

Question: What about the ALBUMIN [1] of the same molecule?
Answer: 4.15 G/DL

Question: What about the “ALKALINE PHOSPHATASE” value [1] of the same molecule?
Answer: 449.5 u/L

Question: What about the “ASPARTATE AMINOTRANSFERASE” value [1] of the same molecule?
Answer: 112.83 u/L

Question: What about the “BLOOD UREA NITROGEN” value [1] of the same molecule?
Answer: 17.33 mg/dL

Question: And the “CARBON DIOXIDE” value [1]?
Answer: 29.5 mmol/L

Question: What about the CHLORIDE [1] of the same molecule?
Answer: 101 MEQ/L

Question: What about the CHOLESTEROL [1] of the same molecule?
Answer: 70 mg/dL

Question: And the “CREATINE PHOSPHOKINASE” value [1]?
Answer: 1325.83 u/L

Question: What about the CREATININE [1] of the same molecule?
Answer: 0.18 mg/dL

Question: What about the GLUCOSE [1] of the same molecule?
Answer: 171.5 mg/dL

Question: What about the “LACTATE DEHYDROGENASE” value [1] of the same molecule?
Answer: 386 u/L

Question: What about the LIPASE [1] of the same molecule?
Answer: 10 u/L

Question: What about the PHOSPHORUS [1] of the same molecule?
Answer: 11.57 mg/dL

Question: And the POTASSIUM [1]?
Answer: 6.21 MEQ/L

Question: What about the SODIUM [1] of the same molecule?
Answer: 141.65 MEQ/L

Question: What about the “TOTAL BILIRUBIN” value [1] of the same molecule?
Answer: 0.15 mg/dL

Question: What about the “TOTAL PROTEIN” value [1] of the same molecule?
Answer: 5.75 G/DL

Question: What about the “URIC ACID” value [1] of the same molecule?
Answer: 1.28 mg/dL

Question: What about the “ABSOLUTE BASOPHIL” value [2] of the same molecule?
Answer: 0 CELLS/uL

Question: What about the “ABSOLUTE EOSINOPHIL” value [2] of the same molecule?
Answer: 138.17 CELLS/uL

Question: And the “ABSOLUTE LYMPHOCYTE” value [2]?
Answer: 13283.17 CELLS/uL

Question: And the “ABSOLUTE MONOCYTE” value [2]?
Answer: 303.83 CELLS/uL

Question: What about the “ABSOLUTE SEGMENTED NEUTROPHIL” value [2] of the same molecule?
Answer: 1308.17 CELLS/uL

Question: And the BASOPHIL [2]?
Answer: 0%

Question: What about the EOSINOPHIL [2] of the same molecule?
Answer: 1%

Question: And the “ERYTHROCYTE COUNT” value [2]?
Answer: 5.32 x10E6/uL

Question: And the HEMATOCRIT [2]?
Answer: 33.8%

Question: What about the HEMOGLOBIN [2] of the same molecule?
Answer: 13.63 G/DL

Question: What about the “LEUKOCYTE COUNT” value [2] of the same molecule?
Answer: 15.03 x10E3/uL

Question: What about the LYMPHOCYTE [2] of the same molecule?
Answer: 88.33%

Question: And the “MEAN CORPUSCULAR HEMOGLOBIN” value [2]?
Answer: 25.68 pg

Question: And the “MEAN CORPUSCULAR HEMOGLOBIN CONCENTRATION” value [2]?
Answer: 40.35 G/DL

Question: What about the “MEAN CORPUSCULAR VOLUME” value [2] of the same molecule?
Answer: 63.67 fL

Question: And the MONOCYTE [2]?
Answer: 1.83%

Question: What about the NEUTROPHIL [2] of the same molecule?
Answer: 8.83%

Question: And the “NUCLEATED RED BLOOD CELLS” value [2]?
Answer: 0 /100WBC

Question: And the “PLATELET COUNT” value [2]?
Answer: 1097.5 x10E3/uL

Question: And the “ALANINE AMINOTRANSFERASE” value [2]?
Answer: 54.5 u/L

Question: What about the ALBUMIN [2] of the same molecule?
Answer: 4.27 G/DL

Question: And the “ALKALINE PHOSPHATASE” value [2]?
Answer: 337 u/L

Question: What about the “ASPARTATE AMINOTRANSFERASE” value [2] of the same molecule?
Answer: 94.67 u/L

Question: What about the “BLOOD UREA NITROGEN” value [2] of the same molecule?
Answer: 17 mg/dL

Question: What about the “CARBON DIOXIDE” value [2] of the same molecule?
Answer: 28.33 mmol/L

Question: And the CHLORIDE [2]?
Answer: 101.5 MEQ/L

Question: And the CHOLESTEROL [2]?
Answer: 71.33 mg/dL

Question: What about the “CREATINE PHOSPHOKINASE” value [2] of the same molecule?
Answer: 628.17 u/L

Question: And the CREATININE [2]?
Answer: 0.19 mg/dL

Question: What about the GLUCOSE [2] of the same molecule?
Answer: 177.83 mg/dL

Question: What about the “LACTATE DEHYDROGENASE” value [2] of the same molecule?
Answer: 500.5 u/L

Question: What about the LIPASE [2] of the same molecule?
Answer: 9.5 u/L

Question: And the PHOSPHORUS [2]?
Answer: 12.3 mg/dL

Question: What about the POTASSIUM [2] of the same molecule?
Answer: 5.63 MEQ/L

Question: What about the SODIUM [2] of the same molecule?
Answer: 143.03 MEQ/L

Question: And the “TOTAL BILIRUBIN” value [2]?
Answer: 0.2 mg/dL

Question: What about the “TOTAL PROTEIN” value [2] of the same molecule?
Answer: 6.02 G/DL

Question: What about the “URIC ACID” value [2] of the same molecule?
Answer: 1.5 mg/dL

Question: And the “ABSOLUTE BASOPHIL” value [3]?
Answer: 0 CELLS/uL

Question: What about the “ABSOLUTE EOSINOPHIL” value [3] of the same molecule?
Answer: 0 CELLS/uL

Question: And the “ABSOLUTE LYMPHOCYTE” value [3]?
Answer: 13567.33 CELLS/uL

Question: What about the “ABSOLUTE MONOCYTE” value [3] of the same molecule?
Answer: 279 CELLS/uL

Question: And the “ABSOLUTE SEGMENTED NEUTROPHIL” value [3]?
Answer: 1153.67 CELLS/uL

Question: What about the BASOPHIL [3] of the same molecule?
Answer: 0%

Question: What about the EOSINOPHIL [3] of the same molecule?
Answer: 0%

Question: And the “ERYTHROCYTE COUNT” value [3]?
Answer: 5.31 x10E6/uL

Question: What about the HEMATOCRIT [3] of the same molecule?
Answer: 33.83%

Question: What about the HEMOGLOBIN [3] of the same molecule?
Answer: 13.33 G/DL

Question: What about the “LEUKOCYTE COUNT” value [3] of the same molecule?
Answer: 15 x10E3/uL

Question: What about the LYMPHOCYTE [3] of the same molecule?
Answer: 89.67%

Question: And the “MEAN CORPUSCULAR HEMOGLOBIN” value [3]?
Answer: 25.1 pg

Question: What about the “MEAN CORPUSCULAR HEMOGLOBIN CONCENTRATION” value [3] of the same molecule?
Answer: 39.4 G/DL

Question: What about the “MEAN CORPUSCULAR VOLUME” value [3] of the same molecule?
Answer: 63.63 fL

Question: And the MONOCYTE [3]?
Answer: 2%

Question: What about the NEUTROPHIL [3] of the same molecule?
Answer: 8.33%

Question: And the “NUCLEATED RED BLOOD CELLS” value [3]?
Answer: 0 /100WBC

Question: What about the “PLATELET COUNT” value [3] of the same molecule?
Answer: 1282 x10E3/uL

Question: And the “ALANINE AMINOTRANSFERASE” value [3]?
Answer: 53 u/L

Question: What about the ALBUMIN [3] of the same molecule?
Answer: 4.17 G/DL

Question: What about the “ALKALINE PHOSPHATASE” value [3] of the same molecule?
Answer: 373 u/L

Question: What about the “ASPARTATE AMINOTRANSFERASE” value [3] of the same molecule?
Answer: 80.33 u/L

Question: And the “BLOOD UREA NITROGEN” value [3]?
Answer: 17.67 mg/dL

Question: What about the “CARBON DIOXIDE” value [3] of the same molecule?
Answer: 30 mmol/L

Question: And the CHLORIDE [3]?
Answer: 100.33 MEQ/L

Question: What about the CHOLESTEROL [3] of the same molecule?
Answer: 78.33 mg/dL

Question: What about the “CREATINE PHOSPHOKINASE” value [3] of the same molecule?
Answer: 276 u/L

Question: And the CREATININE [3]?
Answer: 0.18 mg/dL

Question: And the GLUCOSE [3]?
Answer: 159.67 mg/dL

Question: And the “LACTATE DEHYDROGENASE” value [3]?
Answer: 157.33 u/L

Question: What about the LIPASE [3] of the same molecule?
Answer: 10 u/L

Question: What about the PHOSPHORUS [3] of the same molecule?
Answer: 10.93 mg/dL

Question: What about the POTASSIUM [3] of the same molecule?
Answer: 6.04 MEQ/L

Question: And the SODIUM [3]?
Answer: 141.53 MEQ/L

Question: And the “TOTAL BILIRUBIN” value [3]?
Answer: 0.17 mg/dL

Question: What about the “TOTAL PROTEIN” value [3] of the same molecule?
Answer: 5.77 G/DL

Question: And the “URIC ACID” value [3]?
Answer: 1.33 mg/dL
